From article PMC3388095, “Fluorophore Labeled Kinase Detects Ligands That Bind within the MAPK Insert of p38α Kinase” (PLoS ONE, 2012)

Experiments:
Assay in all cases: Kinase selectivity profile, 33P-ATP filter-binding assay
Format in all cases: biochemical
JNK3 = JNK3 (Homo sapiens, UniProt P53779)
Protocol: (§1) Figure 5 Kinase selectivity profile of 1b. Compound 1b was profiled against a selected panel of 95 different kinases at a concentration of 10 µM employing a radioactive (^33P-ATP) filter-binding assay (National Centre for Protein Kinase Profiling, Dundee). The numbers represent the remaining kinase activity in %. […] TEXT PRINTED IN THE PICTURE: no label printed: Aurora B: 53; MNK2: 67; MINK1: 69; HER4: 71; MKK1: 75; PKBβ: 75; PHK: 76; PIM2: 76; PIM3: 77; CHK2: 78; PKD1: 79; TBK1: 79; PAK4: 80; Lck: 80; GSK3β: 80; IGF-1R: 81; p38δ MAPK: 81; PIM1: 82; SRPK1: 83; SmMLCK: 83; MAPKAP-K3: 84; EPH A2: 85; MELK: 85; CK2: 85; CK1: 86; CAMK1: 86; PLK1: 87; MST2: 87; IR-HIS: 87; BTK: 87; HIPK1: 87; p38α MAPK: 88; DYRK2: 88; JNK3: 88; PAK5: 88; IKKε: 89; p38β MAPK: 89; NUAK1: 90; PAK2: 90; MNK1: 91; ERK8: 91; GCK: 91; PRAK: 91; MLK1: 92; SGK1: 92; PAK6: 92; TTK: 92; BRSK2: 92; MARK4: 93; CHK1: 93; RIPK2: 94; CDK2-Cyclin A: 94; JNK1: 94; AMPK: 94; VEG-FR: 95; DYRK1A: 95; CAMKKβ: 95; PKCα: 96; S6K1: 96; MSK1: 96; PKCz: 96; YES1: 96; RSK1: 97; IRAK4: 97; DYRK3: 97; IKKβ: 97; ERK2: 98; MLK3: 98; RSK2: 98; LKB1: 98; MAPKAP-K2: 98; ERK1: 99; FGF-R1: 99; SYK: 99; MST4: 99; MARK3: 99; MARK2: 100; PDK1: 100; JNK2: 101; HIPK2: 101; BRSK1: 102; EF2K: 102; PRK2: 103; Aurora A: 104; IRR: 104; CSK: 104; PKA: 104; NEK6: 105; p38γ MAPK: 105; Src: 107; PKBα: 109; ROCK 2: 109; EPH-B3: 112; HIPK3: 115; NEK2α: 119 DOUBTS OF THE COPYIST ABOUT THIS PICTURE: The picture prints no compound label and no measure or unit for the numbers; only the colour scale 'Inhibition weak/strong' is printed. / PKCz: the last letter may be z or ζ / NEK2α: the last letter may be a or α / IKKε: the last letter may be ε or e

LKB1 = LKB1 (Homo sapiens, UniProt Q15831)
Protocol: as §1

EPH A2 = EPH A2 (Homo sapiens, UniProt P29317)
Protocol: as §1

NEK6 = NEK6 (Homo sapiens, UniProt Q9HC98)
Protocol: as §1

YES1 = YES1 (Homo sapiens, UniProt P07947)
Protocol: as §1

NEK2α = NEK2α (Homo sapiens, UniProt P51955)
Protocol: as §1

HER4 = HER4 (Homo sapiens, UniProt Q15303)
Protocol: as §1

S6K1 = S6K1 (Homo sapiens, UniProt P23443)
Protocol: as §1

PAK6 = PAK6 (Homo sapiens, UniProt Q9NQU5)
Protocol: as §1

JNK2 = JNK2 (Homo sapiens, UniProt P45984)
Protocol: as §1

ROCK 2 = ROCK 2 (Rattus norvegicus, UniProt Q62868)
Protocol: as §1

HIPK1 = HIPK1 (Homo sapiens, UniProt Q86Z02)
Protocol: as §1

RIPK2 = RIPK2 (Homo sapiens, UniProt O43353)
Protocol: as §1

PKBα = PKBα (Homo sapiens, UniProt P31749)
Protocol: as §1

RSK2 = RSK2 (Homo sapiens, UniProt P51812)
Protocol: as §1

MSK1 = MSK1 (Homo sapiens, UniProt O75582)
Protocol: as §1

Src = Src (Homo sapiens, UniProt P12931)
Protocol: as §1

SYK = SYK (Homo sapiens, UniProt P43405)
Protocol: as §1

MLK3 = MLK3 (Homo sapiens, UniProt Q16584)
Protocol: as §1

MKK1 = MKK1 (Homo sapiens, UniProt Q02750)
Protocol: as §1

ERK8 = ERK8 (Homo sapiens, UniProt Q8TD08)
Protocol: as §1

MARK2 = MARK2 (Homo sapiens, UniProt Q7KZI7)
Protocol: as §1

PIM2 = PIM2 (Homo sapiens, UniProt Q9P1W9)
Protocol: as §1

CAMK1 = CAMK1 (Homo sapiens, UniProt Q14012)
Protocol: as §1

RSK1 = RSK1 (Homo sapiens, UniProt Q15418)
Protocol: as §1

BRSK2 = BRSK2 (Homo sapiens, UniProt Q8IWQ3)
Protocol: as §1

MNK1 = MNK1 (Homo sapiens, UniProt Q9BUB5)
Protocol: as §1

Sequence of LKB1 (Q15831 whole entry): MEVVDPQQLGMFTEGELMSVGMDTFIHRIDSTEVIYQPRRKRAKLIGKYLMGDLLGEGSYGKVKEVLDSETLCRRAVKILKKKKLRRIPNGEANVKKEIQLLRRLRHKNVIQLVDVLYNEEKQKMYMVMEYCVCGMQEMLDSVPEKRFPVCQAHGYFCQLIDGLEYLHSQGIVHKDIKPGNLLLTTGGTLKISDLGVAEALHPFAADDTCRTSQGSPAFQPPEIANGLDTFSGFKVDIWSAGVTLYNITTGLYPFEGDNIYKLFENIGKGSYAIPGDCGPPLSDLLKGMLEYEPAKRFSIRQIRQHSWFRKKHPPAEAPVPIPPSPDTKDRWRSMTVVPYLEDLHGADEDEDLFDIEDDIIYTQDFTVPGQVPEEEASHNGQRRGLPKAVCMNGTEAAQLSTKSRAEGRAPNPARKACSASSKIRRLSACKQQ
Sequence of LKB1 (Q7RTN6 whole entry partner): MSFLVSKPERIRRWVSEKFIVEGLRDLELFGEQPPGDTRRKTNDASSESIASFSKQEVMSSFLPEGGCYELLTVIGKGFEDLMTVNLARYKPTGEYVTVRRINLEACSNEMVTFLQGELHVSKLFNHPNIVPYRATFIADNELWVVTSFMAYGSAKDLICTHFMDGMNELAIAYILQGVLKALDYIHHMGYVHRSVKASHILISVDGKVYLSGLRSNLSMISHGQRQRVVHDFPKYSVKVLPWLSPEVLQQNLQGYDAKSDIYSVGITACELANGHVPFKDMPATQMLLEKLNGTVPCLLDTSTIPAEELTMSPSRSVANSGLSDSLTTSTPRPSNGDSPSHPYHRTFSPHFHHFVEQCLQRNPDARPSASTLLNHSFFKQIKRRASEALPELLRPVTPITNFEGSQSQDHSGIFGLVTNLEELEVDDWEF
Sequence of LKB1 (Q9Y376 whole entry partner): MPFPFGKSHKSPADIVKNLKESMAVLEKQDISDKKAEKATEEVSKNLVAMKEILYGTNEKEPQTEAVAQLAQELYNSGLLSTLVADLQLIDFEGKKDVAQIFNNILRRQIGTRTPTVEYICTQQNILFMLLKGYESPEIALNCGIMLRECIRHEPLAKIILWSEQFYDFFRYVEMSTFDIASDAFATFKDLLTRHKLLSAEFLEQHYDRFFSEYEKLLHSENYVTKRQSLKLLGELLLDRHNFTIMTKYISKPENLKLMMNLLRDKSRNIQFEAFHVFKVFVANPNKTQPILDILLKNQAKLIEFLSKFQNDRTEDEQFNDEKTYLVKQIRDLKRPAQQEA
Sequence of ERK8 (Q8TD08 whole entry): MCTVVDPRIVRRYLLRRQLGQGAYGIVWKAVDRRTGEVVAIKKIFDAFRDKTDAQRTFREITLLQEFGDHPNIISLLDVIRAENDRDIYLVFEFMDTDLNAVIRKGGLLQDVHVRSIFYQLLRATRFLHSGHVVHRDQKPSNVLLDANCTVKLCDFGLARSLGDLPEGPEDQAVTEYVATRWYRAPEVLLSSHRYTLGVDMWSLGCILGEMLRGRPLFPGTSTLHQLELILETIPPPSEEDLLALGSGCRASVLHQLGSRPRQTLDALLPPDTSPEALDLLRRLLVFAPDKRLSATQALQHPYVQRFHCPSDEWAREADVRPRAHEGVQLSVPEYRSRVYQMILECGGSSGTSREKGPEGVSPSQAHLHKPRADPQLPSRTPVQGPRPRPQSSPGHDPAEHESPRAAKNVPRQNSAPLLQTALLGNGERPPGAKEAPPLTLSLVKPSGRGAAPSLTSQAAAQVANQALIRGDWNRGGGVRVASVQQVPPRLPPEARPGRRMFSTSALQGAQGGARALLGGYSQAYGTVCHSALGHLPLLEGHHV
Sequence of MNK1 (Q9BUB5 whole entry): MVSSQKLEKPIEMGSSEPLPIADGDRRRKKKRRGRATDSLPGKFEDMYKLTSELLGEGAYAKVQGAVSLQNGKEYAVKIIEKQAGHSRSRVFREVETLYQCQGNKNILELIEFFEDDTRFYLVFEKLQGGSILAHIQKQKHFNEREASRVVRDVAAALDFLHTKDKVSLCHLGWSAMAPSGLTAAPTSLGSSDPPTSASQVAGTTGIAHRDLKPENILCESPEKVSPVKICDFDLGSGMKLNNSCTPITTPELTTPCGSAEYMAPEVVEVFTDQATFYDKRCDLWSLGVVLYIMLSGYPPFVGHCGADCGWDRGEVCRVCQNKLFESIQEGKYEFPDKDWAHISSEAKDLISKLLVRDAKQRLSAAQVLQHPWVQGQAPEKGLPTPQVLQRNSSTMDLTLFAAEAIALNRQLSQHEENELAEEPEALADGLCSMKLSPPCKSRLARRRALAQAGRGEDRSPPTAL
Sequence of PAK6 (Q9NQU5 whole entry): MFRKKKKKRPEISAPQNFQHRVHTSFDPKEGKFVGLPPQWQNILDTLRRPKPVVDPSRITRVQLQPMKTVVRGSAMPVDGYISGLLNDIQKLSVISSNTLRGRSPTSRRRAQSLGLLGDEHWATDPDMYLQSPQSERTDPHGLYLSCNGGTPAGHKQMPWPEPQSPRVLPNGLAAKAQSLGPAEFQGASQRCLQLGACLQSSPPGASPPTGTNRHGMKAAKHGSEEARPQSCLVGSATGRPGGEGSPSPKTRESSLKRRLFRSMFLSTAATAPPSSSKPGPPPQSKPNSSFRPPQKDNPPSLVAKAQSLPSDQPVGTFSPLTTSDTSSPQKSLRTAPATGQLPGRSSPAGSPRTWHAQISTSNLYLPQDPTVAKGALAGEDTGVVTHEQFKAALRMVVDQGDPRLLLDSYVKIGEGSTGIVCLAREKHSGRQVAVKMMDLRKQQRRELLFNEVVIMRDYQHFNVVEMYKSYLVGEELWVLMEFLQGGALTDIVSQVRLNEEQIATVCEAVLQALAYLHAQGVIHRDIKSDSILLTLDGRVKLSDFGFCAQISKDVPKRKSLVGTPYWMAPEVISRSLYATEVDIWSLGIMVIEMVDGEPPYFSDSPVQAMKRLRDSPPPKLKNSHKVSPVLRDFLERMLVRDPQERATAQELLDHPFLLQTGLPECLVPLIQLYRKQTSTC
Sequence of S6K1 (P23443 whole entry): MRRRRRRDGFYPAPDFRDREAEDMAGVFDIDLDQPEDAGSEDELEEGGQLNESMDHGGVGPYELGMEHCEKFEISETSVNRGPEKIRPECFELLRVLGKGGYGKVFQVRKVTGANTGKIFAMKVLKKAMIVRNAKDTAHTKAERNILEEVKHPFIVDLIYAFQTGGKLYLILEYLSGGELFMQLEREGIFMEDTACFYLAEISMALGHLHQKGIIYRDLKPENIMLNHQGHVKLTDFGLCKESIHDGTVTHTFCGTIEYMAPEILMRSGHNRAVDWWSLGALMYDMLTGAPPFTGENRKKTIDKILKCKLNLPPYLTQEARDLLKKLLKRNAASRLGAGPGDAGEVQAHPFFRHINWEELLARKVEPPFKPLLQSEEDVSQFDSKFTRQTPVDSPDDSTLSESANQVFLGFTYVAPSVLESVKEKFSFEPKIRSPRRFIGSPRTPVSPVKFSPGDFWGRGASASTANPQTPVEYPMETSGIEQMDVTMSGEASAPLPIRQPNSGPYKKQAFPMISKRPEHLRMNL
Sequence of MARK2 (Q7KZI7 whole entry): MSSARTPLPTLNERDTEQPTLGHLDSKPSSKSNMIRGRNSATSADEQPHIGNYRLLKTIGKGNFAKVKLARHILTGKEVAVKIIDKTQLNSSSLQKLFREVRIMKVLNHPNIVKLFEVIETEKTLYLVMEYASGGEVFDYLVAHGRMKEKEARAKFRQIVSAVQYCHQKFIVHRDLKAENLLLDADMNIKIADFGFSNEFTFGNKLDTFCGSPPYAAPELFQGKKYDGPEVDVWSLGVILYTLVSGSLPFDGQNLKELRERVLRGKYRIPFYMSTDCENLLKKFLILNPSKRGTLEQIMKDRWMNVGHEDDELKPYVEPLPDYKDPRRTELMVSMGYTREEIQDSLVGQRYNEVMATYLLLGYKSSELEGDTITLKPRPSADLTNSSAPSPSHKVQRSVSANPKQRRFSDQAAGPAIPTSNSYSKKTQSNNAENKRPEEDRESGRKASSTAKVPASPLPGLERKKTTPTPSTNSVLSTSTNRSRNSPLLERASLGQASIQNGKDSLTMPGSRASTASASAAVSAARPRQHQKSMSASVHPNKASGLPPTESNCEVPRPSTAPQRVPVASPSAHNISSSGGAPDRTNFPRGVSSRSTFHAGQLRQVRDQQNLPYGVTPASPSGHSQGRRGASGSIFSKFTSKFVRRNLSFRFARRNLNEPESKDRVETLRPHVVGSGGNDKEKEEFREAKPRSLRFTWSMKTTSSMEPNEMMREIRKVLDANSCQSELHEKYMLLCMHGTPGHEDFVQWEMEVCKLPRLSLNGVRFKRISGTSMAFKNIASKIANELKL
Sequence of ROCK 2 (Q62868 2-543 limits assumed): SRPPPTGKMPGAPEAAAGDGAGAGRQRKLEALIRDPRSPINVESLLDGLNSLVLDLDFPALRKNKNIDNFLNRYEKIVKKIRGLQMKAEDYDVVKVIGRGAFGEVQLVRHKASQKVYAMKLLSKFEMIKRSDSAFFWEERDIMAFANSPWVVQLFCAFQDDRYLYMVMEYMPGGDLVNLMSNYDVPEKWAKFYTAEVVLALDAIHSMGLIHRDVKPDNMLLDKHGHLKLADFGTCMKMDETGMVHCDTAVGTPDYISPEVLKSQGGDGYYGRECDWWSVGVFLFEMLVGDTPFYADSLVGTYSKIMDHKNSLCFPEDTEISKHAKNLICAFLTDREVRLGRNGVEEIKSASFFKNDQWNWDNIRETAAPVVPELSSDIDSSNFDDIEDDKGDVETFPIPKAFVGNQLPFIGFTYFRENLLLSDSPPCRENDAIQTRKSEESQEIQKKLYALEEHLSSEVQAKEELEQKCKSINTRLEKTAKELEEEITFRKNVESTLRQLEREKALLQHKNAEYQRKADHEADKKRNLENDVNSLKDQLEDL

Nc1ccc2c(NC3CC3)nc(-c3ccccc3)nc2c1 [1b, N^4-Cyclopropyl-2-phenyl-4,7-quinazolinediamine]
remaining activity at 10 µM (JNK3): 88% | remaining activity at 10 µM (LKB1): 98% | remaining activity at 10 µM (EPH A2): 85% | remaining activity at 10 µM (NEK6): 105% | remaining activity at 10 µM (YES1): 96% | remaining activity at 10 µM (NEK2α): 119% | remaining activity at 10 µM (HER4): 71% | remaining activity at 10 µM (S6K1): 96% | remaining activity at 10 µM (PAK6): 92% | remaining activity at 10 µM (JNK2): 101% | remaining activity at 10 µM (ROCK 2): 109% | remaining activity at 10 µM (HIPK1): 87% | remaining activity at 10 µM (RIPK2): 94% | remaining activity at 10 µM (PKBα): 109% | remaining activity at 10 µM (RSK2): 98% | remaining activity at 10 µM (MSK1): 96% | remaining activity at 10 µM (Src): 107% | remaining activity at 10 µM (SYK): 99% | remaining activity at 10 µM (MLK3): 98% | remaining activity at 10 µM (MKK1): 75% | remaining activity at 10 µM (ERK8): 91% | remaining activity at 10 µM (MARK2): 100% | remaining activity at 10 µM (PIM2): 76% | remaining activity at 10 µM (CAMK1): 86% | remaining activity at 10 µM (RSK1): 97% | remaining activity at 10 µM (BRSK2): 92% | remaining activity at 10 µM (MNK1): 91%
